SMILES strings stand for the structures. Structures can show the parent of a compound that is named as a salt.

In one series the target is T1, human VR1 receptors (Homo sapiens, UniProt Q8NER1).
T1 construct: host or cells: cells highly expressing human VR1; cell type not specified
As to the kind of experiment: Human VR1 antagonist assay (Ca2+ imaging). Particulars: cells expressing human VR1, fura-2 Ca2+ imaging, FDSS 6000; capsaicin (300 nM) or acid (pH5.8) stimulation, table does not say which. The format is cell-based. From the text:
Human VR1 Antagonist Assay
VR1 antagonistic activity can be determined by the Ca^2+ imaging assay using human VR1 highly expressing cells. The cells that highly express human VR1 receptors are obtainable from several different conventional methods. The one standard method is cloning from human Dorsal Root Ganglion (DRG) or kidney according to the methods such as described in the journal article; Nature, 389, pp 816-824, 1997. Alternatively VR1 receptors highly expressing human keratinocytes are also known and published in the journal article (Biochemical and Biophysical Research Communications, 291, pp 124-129, 2002). […] Further more, the method to up regulate human VR1 gene, which is usually a silent gene or don't produce detectable level of VR1 receptors, is also available to obtain propriety cells. Such genetic modification method was described in detail; Nat. Biotechnol., 19, pp 440-445, 2001.
The cells that express human VR1 receptors were maintained in culture flask at 37° C. in an environment containing 5% CO2 until use in the assay. The intracellular Ca^2+ imaging assay to determine VR1 antagonistic activities were done by following procedures.
The culture medium was removed from the flask and fura-2/AM fluorescent calcium indicator was added to the flask at a concentration of 5 μM in the medium. The flask was placed in CO2 incubator and incubated for 1 hour. Then the cells expressing the human VR1 receptors were detached from the flask follow by washing with phosphate buffer saline, PBS(−) and re-suspended in assay buffer. The 80 μl of aliquot of cell suspension (3.75×10^5 cells/ml) was added to the assay plate and the cells were spun down by centrifuge (950 rpm, 20° C., 3 minutes).
Capsaicin Stimulation Assay:
The capsaicin-induced changes in the intracellular calcium concentration were monitored using FDSS 6000 (Hamamatsu Photonics, Japan), a fluorometric imaging system. The cell suspension in Krebs-Ringer HEPES (KRH) buffer (115 mM NaCl, 5.4 mM KCl, 1 mM MgSO4, 1.8 mM CaCl2, 11 mM D-Glucose, 25 mM HEPES, 0.96 mM Na2HPO4, pH 7.3) were pre-incubated with varying concentrations of the test compounds or KRH buffer (buffer control) for 15 minutes at room temperature under the dark condition. Then capsaicin solution, which gives 300 nM in assay mixture, was automatically added to the assay plate by the FDSS 6000.
The Acid-induced changes in the intracellular calcium concentration were monitored using FDSS 6000 (Hamamatsu Photonics, Japan), a fluorometric imaging system. The cell suspension in resting buffer (HBSS supplemented with 10 mM HEPES, pH 7.4) were pre-incubated with varying concentrations of the test compounds or resting buffer (buffer control) for 15 minutes at room temperature under the dark condition. The cells were automatically added the stimulating solution (HBSS supplemented with MES, final assay buffer pH5.8) by the FDSS 6000.
Determination of Antagonist Activity
The monitoring of the changes in the fluorescence signals (λex=340 nm/380 nm, λem=510-520 nm) was initiated at 1 minute prior to the addition of capsaicin solution or acidic buffer and continued for 5 minute.

The nature of series [1]: Half-life in Human Liver Microsomes (HLM). To be noted: pH 7.4; for half-life at 1 μM: human, human liver microsomes (HL101). For orientation: Microsomes from liver hold many membrane-bound enzymes, among them those of drug oxidation.
Experimental: Test compounds (1 μM) were incubated with 3.3 mM MgCl2 and 0.78 mg/mL HLM (HL101) in 100 mM potassium phosphate buffer (pH 7.4) at 37° C. on the 96-deep well plate. The reaction mixture was split into two groups, a non-P450 and a P450 group. NADPH was only added to the reaction mixture of the P450 group. An aliquot of samples of P450 group was collected at 0, 10, 30, and 60 min time point, where 0 min time point indicated the time when NADPH was added into the reaction mixture of P450 group. An aliquot of samples of non-P450 group was collected at −10 and 65 min time point. Collected aliquots were extracted with acetonitrile solution containing an internal standard. The precipitated protein was spun down in centrifuge (2000 rpm, 15 min). The compound concentration in supernatant was measured by LC/MS/MS system.
The half-life value was obtained by plotting the natural logarithm of the peak area ratio of compounds/internal standard versus time. The slope of the line of best fit through the points yields the rate of metabolism (k).

T1 sequence (Q8NER1 whole entry): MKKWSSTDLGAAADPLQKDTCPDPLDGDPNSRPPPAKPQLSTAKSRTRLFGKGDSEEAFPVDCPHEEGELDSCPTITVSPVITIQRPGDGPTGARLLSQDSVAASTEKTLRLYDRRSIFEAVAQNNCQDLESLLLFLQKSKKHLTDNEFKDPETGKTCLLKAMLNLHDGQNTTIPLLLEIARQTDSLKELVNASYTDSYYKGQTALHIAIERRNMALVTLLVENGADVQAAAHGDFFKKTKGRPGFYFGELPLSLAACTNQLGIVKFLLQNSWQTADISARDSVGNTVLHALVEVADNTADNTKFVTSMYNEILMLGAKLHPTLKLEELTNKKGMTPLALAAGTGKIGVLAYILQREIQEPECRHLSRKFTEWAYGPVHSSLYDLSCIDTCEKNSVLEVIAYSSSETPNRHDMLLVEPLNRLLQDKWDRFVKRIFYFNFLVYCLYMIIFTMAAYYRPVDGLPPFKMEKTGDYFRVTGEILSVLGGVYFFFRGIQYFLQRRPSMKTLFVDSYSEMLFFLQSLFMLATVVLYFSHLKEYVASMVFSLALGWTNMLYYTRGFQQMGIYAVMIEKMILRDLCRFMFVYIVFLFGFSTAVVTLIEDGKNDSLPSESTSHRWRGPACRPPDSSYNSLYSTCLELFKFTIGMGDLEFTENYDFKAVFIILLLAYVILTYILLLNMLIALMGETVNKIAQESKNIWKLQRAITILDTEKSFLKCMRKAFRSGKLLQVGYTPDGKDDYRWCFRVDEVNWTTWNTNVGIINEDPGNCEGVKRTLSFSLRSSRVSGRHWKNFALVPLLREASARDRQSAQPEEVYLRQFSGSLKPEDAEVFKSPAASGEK

In general, IC50 refers to the concentration needed to halve the response being measured. Usually half-life stands for the time in which the quantity being followed falls by half. Take `CCc1cc([C@@H](C)NC(=O)C2CC2(C)c2ccc(OC(F)(F)F)cc2)ccc1NS(C)(=O)=O` (mixture of isomers) [Example 29, N-((1R)-1-{3-Ethyl-4-[(methylsulfonyl)amino]phenyl}ethyl)-2-methyl-2-{4-[(trifluoromethyl)oxy]phenyl}cyclopropanecarboxamide]: 17.9 nM corresponded to half-maximal inhibition against human VR1 receptors (IC50). The same molecule displayed a half-life at 1 μM in series [1] of 19 min.
For `Cc1cc([C@@H](C)NC(=O)C2CC2(C)c2ccc(OC(F)(F)F)cc2)ccc1NS(C)(=O)=O` (single isomer, unassigned) [Example 28], in that order: 12.3 nM and 61 min.
In the same order, the values of `Cc1cc([C@@H](C)NC(=O)C2CC2c2cc(F)c(C(C)(C)C(F)(F)F)c(F)c2)ccc1NS(C)(=O)=O` (single isomer, unassigned) [Example 30] are 138 nM and 32 min.
In the case of `Cc1nc([C@@H](C)NC(=O)C2CC2c2ccc(C(C)(C)C)cc2)ccc1NS(C)(=O)=O` (single isomer, unassigned) [Example 55], on human VR1 receptors, the 50% inhibitory concentration (IC50) was 297 nM. In series [1], this molecule had a half-life at 1 μM of 42 min.
`Cc1nc([C@@H](C)NC(=O)C2CC2c2ccc(C(F)(F)F)cc2)ccc1NS(C)(=O)=O` (single isomer, unassigned) [Example 56] gave an IC50 at human VR1 receptors of 1250 nM. In series [1], this molecule registered a half-life at 1 μM of more than 120 min.
For `Cc1cc([C@@H](C)NC(=O)C2CC2(C)c2ccc(C(F)(F)F)nc2)ccc1NS(C)(=O)=O` (single isomer, unassigned) [Example 57], in that order: 30.5 nM and 91 min.
In the same order, the values of `Cc1cc([C@@H](C)NC(=O)C2CC2(C)c2cc(F)c(C(C)(C)C(F)(F)F)c(F)c2)ccc1NS(C)(=O)=O` (single isomer, unassigned) [Example 71] are 0.48 nM and 15.8 min.
For the molecule `Oc1cc2c(cc1O)CN(C(=S)NCCc1ccc(Cl)cc1)CCC2` [Capsazepine, reference compound], the IC50 on human VR1 receptors lay in the range of 237 to 455 nM.
Same read-out and setting: for `Cc1cc([C@@H](C)NC(=O)C2CC2(C)c2ccc(C(C)(C)O)cc2)ccc1NS(C)(=O)=O` (stereo partly drawn) [Example 3, 2-[4-(1-Hydroxy-1-methylethyl)phenyl]-2-methyl-N-((1R)-1-{3-methyl-4-[(methylsulfonyl)amino]phenyl}ethyl)cyclopropanecarboxamide] the value was 885 nM.
In the case of `Cc1cc([C@@H](C)NC(=O)C2CC2(C)c2ccc(C(C)(C)C)nc2)ccc1NS(C)(=O)=O` (stereo partly drawn) [Example 11, 2-(6-tert-Butylpyridin-3-yl)-2-methyl-N-((1R)-1-{3-methyl-4-[(methylsulfonyl)amino]phenyl}ethyl)cyclopropanecarboxamide monohydrochloride], the “T1/2” value in series [1] (1 μM compound, 0.78 mg/mL HLM, 37° C., NADPH) amounted to 22 min.
With `CCc1nc([C@@H](C)NC(=O)C2C[C@]2(C)c2ccc(C(C)(C)C(F)(F)F)cc2)ccc1NS(C)(=O)=O` (stereo partly drawn) [Example 35, N-((1R)-1-{6-Ethyl-5-[(methylsulfonyl)amino]pyridin-2-yl}ethyl)-2-methyl-2-[4-(2,2,2-trifluoro-1,1-dimethylethyl)phenyl]cyclopropanecarboxamide], the half-life at 1 μM in series [1] turned out to be 25 min.
The molecule `CCc1nc([C@@H](C)NC(=O)[C@H]2C[C@]2(C)c2ccc(C(C)(C)C(F)(F)F)cc2)ccc1NS(C)(=O)=O` [Example 35, N-((1R)-1-{6-Ethyl-5-[(methylsulfonyl)amino]pyridin-2-yl}ethyl)-2-methyl-2-[4-(2,2,2-trifluoro-1,1-dimethylethyl)phenyl]cyclopropanecarboxamide] registered an IC50 against human VR1 receptors of 156 nM.
As to `C[C@@H](NC(=O)C1C[C@@H]1c1ccc(C(C)(C)C)c(F)c1)c1ccc(NS(C)(=O)=O)c(CO)c1` (stereo partly drawn) [Example 36, 2-[4-tert-Butyl-3-fluorophenyl]-N-((1R)-1-{3-(hydroxymethyl)-4-[(methylsulfonyl)amino]phenyl}ethyl)cyclopropanecarboxamide], the half-life at 1 μM in series [1] turned out to be 23 min.
`C[C@@H](NC(=O)[C@H]1C[C@@H]1c1ccc(C(C)(C)C)c(F)c1)c1ccc(NS(C)(=O)=O)c(CO)c1` [Example 36, 2-[4-tert-Butyl-3-fluorophenyl]-N-((1R)-1-{3-(hydroxymethyl)-4-[(methylsulfonyl)amino]phenyl}ethyl)cyclopropanecarboxamide] had an IC50 on human VR1 receptors of 19 nM.
On the same count and under the same terms, for `C[C@@H](NC(=O)C1CC1c1ccc(C(C)(C)C)nc1)c1ccc(NS(C)(=O)=O)c(F)c1` (stereo partly drawn) [Example 52, 2-[6-tert-Butylpyridin-3-yl]-N-((1R)-1-{3-fluoro-4-[(methylsulfonyl)amino]phenyl}ethyl)cyclopropanecarboxamide] the value was 1150 nM; for `Cc1cc([C@@H](C)NC(=O)C2CC2c2ccc(C(C)(C)C)cc2-c2ccncc2)ccc1NS(C)(=O)=O` (stereo partly drawn) [Example 65, 2-[4-tert-Butyl-2-pyridin-4-ylphenyl]-N-((1R)-1-{3-methyl-4-[(methylsulfonyl)amino]phenyl}ethyl)cyclopropanecarboxamide], 1040 nM.
Same read-out and setting: the result for `Cc1cc([C@@H](C)NC(=O)C2CC2(C)c2cc(F)c(C(C)(C)C)c(F)c2)c(F)cc1NS(C)(=O)=O` (stereo partly drawn) [Example 78, 2-(4-tert-Butyl-3,5-difluorophenyl)-N-((1R)-1-{2-fluoro-5-methyl-4-[(methylsulfonyl)amino]phenyl}ethyl)-2-methylcyclopropanecarboxamide] reads less than 3 nM; that for `COCC(C)(C)c1ccc(C2(C)CC2C(=O)N[C@H](C)c2ccc(NS(C)(=O)=O)c(C)c2)cc1F` (stereo partly drawn) [Example 85, 2-{4-[1,1-Dimethyl-2-(methyloxy)ethyl]-3-fluorophenyl}-2-methyl-N-((1R)-1-{3-methyl-4-[(methylsulfonyl)amino]phenyl}ethyl)cyclopropanecarboxamide], 52.7 nM.
At human VR1 receptors, `C[C@@H](NC(=O)[C@H]1C[C@]1(C)c1ccc(C(F)(F)F)cc1)c1ccc(NS(C)(=O)=O)c(CCO)c1` [Example 86, (1S,2S)-N-((1R)-1-{3-(2-Hydroxyethyl)-4-[(methylsulfonyl)amino]phenyl}ethyl)-2-methyl-2-[4-(trifluoromethyl)phenyl]cyclopropanecarboxamide] displayed an IC50 of 4.8 nM.
`CCc1cc([C@@H](CC)NC(=O)[C@H]2C[C@]2(C)c2ccc(C(F)(F)F)cc2)ccc1NS(C)(=O)=O` [Example 87, (1S,2S)-N-((1R)-1-{3-ethyl-4-[(methylsulfonyl)amino]phenyl}propyl)-2-methyl-2-[4-(trifluoromethyl)phenyl]cyclopropanecarboxamide] returned an IC50 at human VR1 receptors of 19.9 nM.
On the same count and under the same terms, the result for `CCC1(c2ccc(C(F)(F)F)cc2)CC1C(=O)N[C@H](C)c1ccc(NS(C)(=O)=O)c(C)c1` (stereo partly drawn) [Example 88, 2-Ethyl-N-((1R)-1-{3-methyl-4-[(methylsulfonyl)amino]phenyl}ethyl)-2-[4-(trifluoromethyl)phenyl]cyclopropanecarboxamide] reads less than 3 nM.
Consider `CCC1(c2ccc(C(F)(F)F)cc2)CC1C(=O)N[C@H](C)c1ccc(NS(C)(=O)=O)c(F)c1` (stereo partly drawn) [Example 89, 2-Ethyl-N-((1R)-1-{3-fluoro-4-[(methylsulfonyl)amino]phenyl}ethyl)-2-[4-(trifluoromethyl)phenyl]cyclopropanecarboxamide], for which the IC50 at human VR1 receptors is less than 3 nM.
Still for that read-out and setting: for `CC[C@@H](NC(=O)[C@H]1C[C@]1(C)c1cc(F)c(C(C)(C)C)c(F)c1)c1ccc(NS(C)(=O)=O)cc1` [Example 90, 2-(4-tert-Butyl-3,5-difluorophenyl)-2-methyl-N-((1R)-1-{4-[(methylsulfonyl)amino]phenyl}propyl)cyclopropanecarboxamide] the value was 86.3 nM; for `CC[C@@H](NC(=O)[C@H]1C[C@]1(C)c1cc(F)c(C(C)(C)C)c(F)c1)c1ccc(NS(C)(=O)=O)c(C)c1` [Example 91, 2-(4-tert-butyl-3,5-difluorophenyl)-2-methyl-N-((1R)-1-{3-methyl-4-[(methylsulfonyl)amino]phenyl}propyl)cyclopropanecarboxamide], less than 3 nM.

Values taken from US7915448B2, “Substituted sulfonylaminoarylmethyl cyclopropanecarboxamide as VR1 receptor antagonists” (Pfizer Inc., priority 2005, dated 2011).
